Read-outs that look alike come from different tables or passages of the source. Square brackets hold non-standard residues; d marks the D form. HCAP = (1S,2R)-(+)-2-hydroxy-3-cyclohexylisopropylamine linker; dAc‑VIN = 4-des-acetylvinblastine; Chg = N[C@H](C(=O)O)C1CCCCC1; Abu = CC[C@H](N)C(=O)O; VIN = not defined here; GABA = NCCCC(=O)O

Data on 21 compounds can be found in patent publication US20020103136A1, “Conjugates useful in the treatment of prostate cancer” (priority 1998, published 2002).

Data set [1] deals with LNCap prostate tumor cells. Kind of data set: In vitro cytotoxicity, Alamar Blue assay, LNCaP cell kill in 72 hrs. The data set is classed as cell-based. Conditions: read-out: LNCaP Cell Kill in 72 HRS EC5O. As for the experimental part: (§1) The cytotoxicities of the vinca alkaloid derivatives, prepared as described in Example 1, and the cleaveable oligopeptide-vinca drug conjugates, prepared as described in Examples 2 and 2A, against a line of cells which is known to be killed by unmodified vinca drug was assessed with an Alamar Blue assay. Specifically, cell cultures of LNCap prostate tumor cells, Colo320DM cells (also designated C320), T24 bladder carcinoma cells or T47D breast carcinoma cells in 96 well plates was diluted with medium containing various concentrations of a given conjugate (final plate well volume of 200 μl). The cells were incubated for 3 days at 37° C., 20 μl of Alamar Blue is added to the assay well. The cells were further incubated and the assay plates were read on a EL-310 ELISA reader at the dual wavelengths of 570 and 600 nm at 4 and 7 hours after addition of Alamar Blue. Relative percentage viability at the various concentration of conjugate tested was then calculated versus control (no cytotoxic agent or conjugate) cultures. Unless otherwise indicated, the TFA salt of the cytotoxic agent and the acetate salt of the conjugate were tested.
In general terms: Resazurin is reduced to fluorescent resorufin, in cell work by metabolically active cells.

Data set [2] deals with Colo320DM cells (also designated C320). The data set is described as follows: In vitro cytotoxicity, Alamar Blue assay, Colo320DM cells. The data set is classed as cell-based. Conditions: Table 5, value in parentheses, acetate salt unless otherwise indicated, read-out: Cell Kill in 72 HRS EC5O, Colo320DM. As for the experimental part: as §1
Data set [3] addresses T1, enzymatically active free PSA (Homo sapiens, UniProt P07288).
T1 construct: 50% cleavage of the noted oligopeptide-cytotoxic agent conjugates with enzymatically active free PSA; purchased York
Kind of data set: Recognition/cleavage of oligopeptide-vinca drug conjugates by free PSA (HPLC). Conditions: pH 7.4; for Time to 50% Substrate Cleavage by York PSA: conjugate:PSA molar ratio 100 to 1, acetate salt unless otherwise indicated, n > 1 value is an average. It counts as biochemical. As for the experimental part:
The conjugates prepared as described in Example 3 were individually dissolved in PSA digestion buffer (50 mM tris(hydroxymethyl)-aminomethane pH7.4, 140 mM NaCl) and the solution added to PSA at a molar ration of 100 to 1. Alternatively, the PSA digestion buffer utilized is 50 mM tris(hydroxymethyl)-aminomethane pH7.4, 140 mM NaCl. The reaction is quenched after various reaction times by the addition of trifluoroacetic acid (TFA) to a final 1% (volume/volume). Alternatively the reaction is quenched with 10 mM ZnCl2. The quenched reaction was analyzed by HPLC on a reversed-phase C18 column using an aqueous 0.1% TFA/acetonitrile gradient. […] Unless otherwise indicated, the acetate salt of the conjugate was tested.

Data set [4] in a line: Lability in mouse serum (remark in Table 5). The data set is classed as in vitro ADME. The following applies: remark in the Table 5 cell.
Data set [5] concerns T24 bladder carcinoma cells. The data set is described as follows: In vitro cytotoxicity, Alamar Blue assay, T24 cells. It counts as cell-based. The following applies: read-out: Cell Kill in 72 HRS EC5O, T24. As for the experimental part:
as §1

The mark [6] stands for this setting: Table 5, 3 days, acetate salt of conjugate unless otherwise indicated.

T1 sequence (P07288 25-261): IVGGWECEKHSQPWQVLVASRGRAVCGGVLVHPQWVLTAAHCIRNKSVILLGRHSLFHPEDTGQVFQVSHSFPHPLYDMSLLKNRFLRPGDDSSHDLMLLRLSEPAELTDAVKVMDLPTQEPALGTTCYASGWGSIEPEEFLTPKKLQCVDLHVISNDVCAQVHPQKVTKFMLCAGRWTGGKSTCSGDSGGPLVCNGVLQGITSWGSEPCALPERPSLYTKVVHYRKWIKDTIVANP

As to “Ac-4-trans-L-HypSSChgQSP(HCAP)-VIN (XSSXQSX; non-natural residues; cyclised or stapled)”, the EC50 amounted to 5.5 µM in data set [1] (setting [6]) and 15.6 µM in data set [2]. Also, in data set [3], the “Time to 50% Substrate Cleavage by York PSA” value turned out to be 8 min.
Consider `CC[C@]1(O)CC2CN(CCc3c([nH]c4ccccc34)[C@@](C(=O)OC)(c3cc4c(cc3OC)N(C)C3C45CCN4CC=C[C@](CC)(C45)[C@@H](O)[C@]3(O)C(=O)N[C@H](COC(=O)[C@H](CO)NC(=O)[C@H](CCC(N)=O)NC(=O)[C@@H](NC(=O)[C@H](CO)NC(=O)[C@H](CO)NC(=O)[C@@H]3C[C@@H](O)CN3C(C)=O)C3CCCCC3)Cc3ccccc3)C2)C1` (stereo partly shown), for which the “Time to 50% Substrate Cleavage by York PSA” value in data set [3] is 25 min. Moreover, the “Stability in mouse serum” value in data set [4] was “labile”.
Consider “4-des-Acetylvinblastine-23-(N-hydroxyacetyl-Abu-Ser-Ser-Chg-Gln-Ser-Pro-HCAP) amide (XSSXQSP; non-natural residues; cyclised or stapled)”, for which the EC50 in data set [1] (setting [6]) amounted to 2 µM; in data set [2] it was 12.6 µM. Moreover, in data set [3], the “Time to 50% Substrate Cleavage by York PSA” value was found to be 11 min.
On the same counts, the results for “Ac-4-trans-L-Hyp-SSChgQ-SS-(HCAP)-(dAc)-VIN (XSSXQSS; non-natural residues; cyclised or stapled)” are 2 µM, 5 µM and 17 min.
As to “Ac-SChgQSS-Sar-(HCAP)-dAc-VIN (XXQSSX; not fully specified; N-methyl; non-natural residues; cyclised or stapled)”, in data set [3], the “Time to 50% Substrate Cleavage by York PSA” value is 13 min.
For “Ac-SSChgQ-SSP-(HCAP)-dAc-VIN (XSXQSSX; not fully specified; non-natural residues; cyclised or stapled)”, the EC50 was 2.6 µM in data set [1] (setting [6]) and 6.3 µM in data set [2]. In addition, in data set [3], the “Time to 50% Substrate Cleavage by York PSA” value amounted to 8 min.
For `CC[C@]1(O)C[C@@H]2CN(CCc3c([nH]c4ccccc34)[C@@](C(=O)OC)(c3cc4c(cc3OC)N(C)[C@H]3[C@@](O)(C(=O)OC)[C@H](OC(C)=O)[C@]5(CC)C=CCN6CC[C@]43[C@@H]65)C2)C1` [VINBLASTINE, vinblastine], the EC50 was 0.5 µM in data set [1] (Homo sapiens, 72 h, Table 3, 3 days, TFA salt of cytotoxic agent unless otherwise indicated); less than 0.08 µM in data set [5] (Homo sapiens, T-24, 72 h, Table 3, value in parentheses); less than 0.08 µM in data set [5] (Table 5, value in parentheses).
In the case of “4-des-Acetylvinblastine-23-(N-Acetyl-Ser-Chg-Gln-Ser-Ser-Pro-HCAP) Amide Acetate Salt (SXQSSX; non-natural residues; cyclised or stapled) [Ac-SChgQ-SSP-(HCAP)-VIN]”, the EC50 in data set [1] (setting [6]) turned out to be 7.8 µM; in data set [2], 15.7 µM. Moreover, the “Time to 50% Substrate Cleavage by York PSA” value in data set [3] worked out at 8 min.
As for “Ac-AbuSSChgQ-SP-(HCAP)-(dAc)-VIN (XSSXQSP; non-natural residues; cyclised or stapled)”, the EC50 in data set [1] (setting [6]) worked out at 2 µM; in data set [2], 15.7 µM. In data set [3], the “Time to 50% Substrate Cleavage by York PSA” value worked out at 18 min.
The like results for Ac-AbuSChgQ-SP-(HCAP)-(dAc)-VIN were, in that order, 4.1 µM, 15.7 µM and 17 (n = 2) Min.
Regarding “Ac-SChgQ-SS(4-trans-L-Hyp)-(HCAP)-dAc-VIN (XXQSSX; non-natural residues; cyclised or stapled)”, the EC50 in data set [1] (setting [6]) stood at 5.9 µM; in data set [2] it was 10.4 µM. Moreover, the “Time to 50% Substrate Cleavage by York PSA” value in data set [3] was determined as 7 min.
For the compound “Ac-SChgQSS(HCAP)-dAc-VIN (Ac-S[Chg]QSS-{HCAP-dAc‑VIN})”, the EC50 in data set [1] (setting [6]) and in data set [2] was 1.4 µM in each case. For the same compound, in data set [3], the “Time to 50% Substrate Cleavage by York PSA” value was determined as 12 min.
Consider “Ac-SSChgQ-SP-(HCAP)-(dAc)-VIN (Ac-SS[Chg]QSP-{HCAP-dAc‑VIN}; not fully specified)”, for which the EC50 worked out at 10.2 µM in data set [1] (setting [6]) and 29.5 µM in data set [2]. Further, the “Time to 50% Substrate Cleavage by York PSA” value in data set [3] amounted to 30 min.
As to “Ac-AbuSSChgQ-S-(HCAP)-VIN (Ac-[Abu]SS[Chg]QS-{HCAP-VIN}; reading uncertain)”, the EC50 came out at 6.1 µM in data set [1] (setting [6]) and 7.8 µM in data set [2]. In addition, in data set [3] (1 hour, conjugate:PSA 100 to 1), the “Substrate cleavage by York PSA at 1 HOUR” value is on record as 28%.
Regarding “Ac-SChgQSS(PIP)-(HCAP)-dAc-VIN (XXQSSX; non-natural residues; cyclised or stapled)”, the “Time to 50% Substrate Cleavage by York PSA” value in data set [3] turned out to be 22 min.
Turning to “Ac-SChgQS-Abu-(HCAP)-VIN (Ac-S[Chg]QS[Abu]-{HCAP-VIN}; reading uncertain)”, the EC50 in data set [1] (setting [6]) is 0.8 µM; in data set [2], 2 µM. Further, the “Time to 50% Substrate Cleavage by York PSA” value in data set [3] is 60 min.
Consider “4-des-Acetylvinblastine-23-(N-Acetyl-4-trans-L-Hyp-Ser-Ser-Chg-Gln-Ser-HCAP) Amide Acetate Salt”, for which the EC50 in data set [1] (setting [6]) turned out to be 3.4 µM; in data set [2], 4.6 µM. For the same compound, in data set [3], the “Time to 50% Substrate Cleavage by York PSA” value was found to be 15 min.
On the same counts, the results for “Ac-4-trans-L-HypSSChgQS-cyclohexylalaninol-(dAc)-VIN (XSSXQSX; non-natural residues; cyclised or stapled)” are 0.3 µM, 2.6 µM and 10 min.
The like results for “Ac-SChgQSS-gammaAbu-(HCAP)-dAc-VIN (Ac-S[Chg]QSS[GABA]-{HCAP-dAc‑VIN}; not fully specified)” were, in that order, 2.3 µM, 4.3 µM and 12 min.
On to “Ac-SChgQ-SP-(HCAP)-(dAc)-VIN (Ac-S[Chg]QSP-{HCAP-dAc‑VIN})”, for which the results for the EC50 in data set [1] (setting [6]) and in data set [2] were 7.8 µM and 15.7 µM, respectively. The “Time to 50% Substrate Cleavage by York PSA” value in data set [3] stood at 13 min.
The like results for “Ac-4-trans-L-HypSSChgQS-cyclopropylalaninol-(dAc)-VIN” were, in that order, 1.5 µM, 7.5 µM and 45 min.
